Where only a bound is given, the exact number is not on record here.

Consider eleven molecules from ChEMBL document CHEMBL5154804, “Species-Selective Targeting of Fungal Hsp90: Design, Synthesis, and Evaluation of Novel 4,5-Diarylisoxazole Derivatives for the Combination Treatment of Azole-Resistant Candidiasis” (J Med Chem, 2022).

In data set [1] the test system is Candida albicans. Description: Synergistic antifungal activity against fluconazole-resistant Candida albicans 311 assessed as inhibition of fungal growth in presence of fluconazole by checker board microdilution assay. The format is functional. For orientation: Broth dilution looks for growth in wells or tubes with falling amounts of substance.
In data set [2] the test system is Candida albicans. Description: Synergistic antifungal activity against fluconazole-resistant Candida albicans 103 assessed as inhibition of fungal growth in presence of fluconazole by checker board microdilution assay. Type of data set: functional.
A short description of data set [3]: Metabolic stability in human liver microsomes assessed as compound remaining in presence of NADPH cofactor under shaking condition for 10 mins measured after 60 mins by LC-MS/MS analysis. The format is ADME, Microsome. The following applies: time 70 min, read-out: Stability.
In data set [4] the test system is Candida albicans. Description: Synergistic antifungal activity against fluconazole-resistant Candida albicans 100 assessed as inhibition of fungal growth in presence of fluconazole by checker board microdilution assay. Type of data set: functional.
The subject of data set [5] is Candida albicans. Description: Synergistic antifungal activity against fluconazole-resistant Candida albicans 904 assessed as inhibition of fungal growth in presence of fluconazole by checker board microdilution assay. Type of data set: functional.
Data set [6] relates to Candida albicans. Description: Synergistic antifungal activity against fluconazole-resistant Candida albicans 901 assessed as inhibition of fungal growth in presence of fluconazole by checker board microdilution assay. The format is functional.
A short description of data set [7]: Metabolic stability in human liver microsomes assessed as microsomal intrinsic clearance in presence of NADPH cofactor under shaking condition for 10 mins measured after 5 to 60 mins by LC-MS/MS analysis. The format is ADME, Microsome. The following applies: time 15-70 min.
Data set [8] can be described thus: Metabolic stability in human liver microsomes assessed as half life in presence of NADPH cofactor under shaking condition for 10 mins measured after 5 to 60 mins by LC-MS/MS analysis. Type of data set: ADME, Microsome. The following applies: time 15-70 min.
The nature of data set [9]: Metabolic stability in human liver microsomes assessed as intrinsic clearance in presence of NADPH cofactor under shaking condition for 10 mins measured after 5 to 60 mins by LC-MS/MS analysis. Type of data set: ADME, Microsome. The following applies: time 15-70 min. Background: Liver microsomes are vesicles of endoplasmic reticulum, rich in cytochrome P450 enzymes.
Data set [10] deals with Candida albicans. Description: Synergistic antifungal activity against fluconazole-resistant Candida albicans 632 assessed as inhibition of fungal growth in presence of fluconazole by checker board microdilution assay. Type of data set: functional.
In the next data set the target is Heat shock protein HSP90 (Homo sapiens, UniProt P07900+P08238). The data set is described as follows: Binding affinity to human Hsp90 expressed in Escherichia coli by SPR assay. A general note: Surface plasmon resonance follows binding to a sensor surface in real time, without labels.
Data set [11] can be described thus: Binding affinity to recombinant Candida albicans Hsp90 NBD expressed in Escherichia coli by SPR assay.

As usually defined, the MIC80 is the lowest concentration that inhibits either 80% of growth or 80% of the strains tested, depending on the study. A word on the half-life: it is the time needed for the level to fall by half in the phase considered. Consider `CCNC(=O)c1noc(-c2cc(-c3cccc(Cl)c3)c(O)cc2O)c1-c1ccc(CN2CCOCC2)cc1`, for which the MIC80 with Candida albicans [1] stood at 1 µg/mL; with Candida albicans [2], 0.5 µg/mL; in the data set on Candida albicans [4], 1 µg/mL; in the data set on Candida albicans [5], 0.25 µg/mL; with Candida albicans [6], 1 µg/mL; in the data set on Candida albicans [10], 0.5 µg/mL. In addition, in [3], the remaining at 1.167 h was 12.1%. The CLint in [7] is 72 µL/min/mg; in data set [9] it was 64.8 mL/min/kg. In [8], the half-life amounted to 19.3 min.

A word on the Kd: it is the equilibrium constant for the complex coming apart. As to `CCNC(=O)c1noc(-c2cc(-c3ccccc3C)c(O)cc2O)c1-c1ccc(CN2CCOCC2)cc1`, the MIC80 with Candida albicans [1], in the data set with Candida albicans [2], in the data set with Candida albicans [4], in the data set on Candida albicans [5], in the data set with Candida albicans [6] and in the data set on Candida albicans [10] was more than 64 µg/mL throughout. The dissociation constant Kd (at Heat shock protein HSP90; in data set [11]) was more than 25 µM throughout.

For `CCNC(=O)c1noc(-c2cc(-c3cccc(CC)c3)c(O)cc2O)c1-c1ccc(CN2CCOCC2)cc1`, the MIC80 in the data set with Candida albicans [1] was found to be 0.5 µg/mL; in the data set with Candida albicans [2], 1 µg/mL; in the data set on Candida albicans [4], 0.25 µg/mL; in the data set with Candida albicans [5] it was 0.5 µg/mL; with Candida albicans [6] it was 0.25 µg/mL; in the data set with Candida albicans [10], 0.5 µg/mL. Moreover, the remaining at 1.167 h in [3] was 9.2%. Moreover, the CLint in data set [7] worked out at 80.7 µL/min/mg; in data set [9] it was 72.7 mL/min/kg. In [8], the half-life was 17.2 min.

As for `C[C@@H]1C[C@H]2O[C@@H]2/C=C\C=C\C(=O)Cc2c(Cl)c(O)cc(O)c2C(=O)O1` [RADICICOL], the MIC80 with Candida albicans [1] was 1 µg/mL; in the data set on Candida albicans [2], 1 µg/mL; in the data set on Candida albicans [4] it was 0.5 µg/mL; in the data set on Candida albicans [5] it was 0.5 µg/mL; in the data set with Candida albicans [6], 1 µg/mL; in the data set with Candida albicans [10] it was 1 µg/mL. The dissociation constant (Kd) in data set [11] was 0.002 µM.

Take `CCNC(=O)c1noc(-c2cc(-c3cccc(C(C)C)c3)c(O)cc2O)c1-c1ccc(CN2CCOCC2)cc1`: the MIC80 turned out to be 0.5 µg/mL in the data set with Candida albicans [1]; 0.25 µg/mL with Candida albicans [2]; 0.25 µg/mL with Candida albicans [4]; 0.25 µg/mL in the data set on Candida albicans [5]; 0.25 µg/mL with Candida albicans [6]; 0.5 µg/mL in the data set on Candida albicans [10]. In [3], the remaining at 1.167 h turned out to be 6.1%. Further, the CLint stood at 91.9 µL/min/mg in data set [7] and 82.7 mL/min/kg in data set [9]. The Kd at Heat shock protein HSP90 was more than 25 µM; in [11], 0.476 µM. The half-life in data set [8] was found to be 15.1 min.

In the case of `Cc1ccc(-c2cc(-c3onc(C(=O)N4CCCC4)c3-c3ccc(CN4CCOCC4)cc3)c(O)cc2O)cc1`, the MIC80 in the data set with Candida albicans [1], with Candida albicans [2], with Candida albicans [4], with Candida albicans [5], in the data set with Candida albicans [6] and with Candida albicans [10] was more than 64 µg/mL throughout.

Consider `CCNC(=O)c1noc(-c2cc(-c3ccccc3)c(O)cc2O)c1-c1ccc(CN2CCOCC2)cc1`, for which the MIC80 was found to be 4 µg/mL with Candida albicans [1]; 4 µg/mL with Candida albicans [2]; 2 µg/mL in the data set on Candida albicans [4]; 2 µg/mL with Candida albicans [5]; 1 µg/mL in the data set on Candida albicans [6]; 4 µg/mL in the data set on Candida albicans [10]. For the same molecule, the Kd at Heat shock protein HSP90 was more than 25 µM; in data set [11], 7.91 µM.

Regarding `Cc1ccc(-c2cc(-c3onc(C(=O)N4CCCCC4)c3-c3ccc(CN4CCOCC4)cc3)c(O)cc2O)cc1`, the MIC80 in the data set on Candida albicans [1], with Candida albicans [2], in the data set with Candida albicans [4], in the data set with Candida albicans [5], in the data set on Candida albicans [6] and in the data set on Candida albicans [10] was more than 64 µg/mL throughout.

For the molecule `CCNC(=O)c1noc(-c2cc(-c3ccccc3Cl)c(O)cc2O)c1-c1ccc(CN2CCOCC2)cc1`, the MIC80 in the data set on Candida albicans [1], in the data set with Candida albicans [2], in the data set on Candida albicans [4], in the data set on Candida albicans [5], in the data set with Candida albicans [6] and in the data set on Candida albicans [10] was more than 64 µg/mL in each case.

Turning to `Cc1ccc(-c2cc(-c3onc(C(=O)N(C)C)c3-c3ccc(CN4CCOCC4)cc3)c(O)cc2O)cc1`, the MIC80 in the data set with Candida albicans [1] came out at 32 µg/mL; in the data set with Candida albicans [2], 16 µg/mL; in the data set on Candida albicans [4], 32 µg/mL; in the data set with Candida albicans [5] it was 8 µg/mL; with Candida albicans [6], 4 µg/mL; with Candida albicans [10], 8 µg/mL.

Take `CCNC(=O)c1noc(-c2cc(-c3ccc(C)cc3)c(O)cc2O)c1-c1ccc(CN2CCN(C)CC2)cc1`: the MIC80 was more than 64 µg/mL with Candida albicans [1]; more than 64 µg/mL in the data set with Candida albicans [2]; more than 64 µg/mL in the data set with Candida albicans [4]; more than 64 µg/mL in the data set with Candida albicans [5]; 64 µg/mL in the data set with Candida albicans [6]; more than 64 µg/mL with Candida albicans [10].
